Among the test systems are SN12C renal; HT29 colon; OVCAR-5 ovarian; K-562 leukemia; TK-10 renal; 786-0 renal; SK-MEL-2 melanoma; HOP-92 NSCLC; HS 578T breast; ACHN renal; SK-MEL-28 melanoma; SK-OV-3 ovarian; SF-268 CNS; SF-295 CNS; PC-3 prostate; UACC-257 melanoma; SF-539 CNS; UACC-62 melanoma; KM12 colon; BT-549 breast.
Holding throughout (assay): NCI anticancer screen, dose series, 48 h

The record followed here is PubChem BioAssay (NCI).

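Step 1: Grow cells in 96-well plates. Step 2: Expose to compound for 48 hours at 5 concentrations. Step 3: Interpolate endpoints linearly; if unreached, use highest concentration. The concentration for full growth arrest is given as TGI.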

As to `Cc1ccc(-c2cc(-c3c(C)nn(C)c(=O)c3N)[nH]n2)cc1`, the TGI in the assay on SN12C renal, in the assay with HT29 colon, in the assay with OVCAR-5 ovarian, with K-562 leukemia, with TK-10 renal and with 786-0 renal was greater than 100 µM throughout. Moreover, the TGI in the assay with SK-MEL-2 melanoma, in the assay with HOP-92 NSCLC, with HS 578T breast, in the assay on ACHN renal, in the assay with SK-MEL-28 melanoma and with SK-OV-3 ovarian was greater than 100 µM in each case. In addition, the TGI in the assay on SF-268 CNS, in the assay on SF-295 CNS, with PC-3 prostate, with UACC-257 melanoma, in the assay on SF-539 CNS and with UACC-62 melanoma was greater than 100 µM each time. Further, the TGI in the assay with KM12 colon is greater than 100 µM.

As for `COc1ccc(N2C(=O)/C(=C\c3cccc(Oc4ccccc4)c3)SC2c2ccccc2)cc1` (centres undefined), the TGI in the assay with SN12C renal, in the assay on OVCAR-5 ovarian, with K-562 leukemia, in the assay with TK-10 renal, in the assay on 786-0 renal and in the assay on SK-MEL-2 melanoma was greater than 100 µM in each case. Also, the TGI with HOP-92 NSCLC, with HS 578T breast, with ACHN renal, in the assay with SK-MEL-28 melanoma, in the assay with SK-OV-3 ovarian and in the assay with SF-268 CNS was greater than 100 µM throughout. Also, the TGI was greater than 100 µM in the assay with SF-295 CNS; greater than 100 µM with UACC-257 melanoma; 55.9 µM in the assay with SF-539 CNS; greater than 100 µM in the assay on UACC-62 melanoma; greater than 100 µM in the assay with BT-549 breast; greater than 100 µM with KM12 colon.

`CN(C)CCCNC(=O)c1cc(NC(=O)c2cc(NC(=O)[C@@H]3C[C@H]3C(=O)Nc3cc(C(=O)Nc4cc(C(=O)NCCCN(C)C)n(C)c4)n(C)c3)cn2C)cn1C`: the TGI in the assay with SN12C renal, in the assay on HT29 colon, in the assay with OVCAR-5 ovarian, in the assay with K-562 leukemia, with 786-0 renal and in the assay on SK-MEL-2 melanoma was greater than 100 µM in each case. The TGI with HOP-92 NSCLC, with ACHN renal, in the assay on SK-MEL-28 melanoma, with SF-268 CNS, in the assay with SF-295 CNS and in the assay on PC-3 prostate was greater than 100 µM in each case. Moreover, the TGI in the assay with UACC-257 melanoma, with SF-539 CNS, in the assay on BT-549 breast and in the assay on KM12 colon was greater than 100 µM in each case.

`O=C1/C(=C/c2cccs2)NC(=S)N1CN1CCCC(CO)C1` (centres undefined): the TGI in the assay with SN12C renal, in the assay with HT29 colon, in the assay on OVCAR-5 ovarian, in the assay with K-562 leukemia, in the assay on TK-10 renal and with 786-0 renal was greater than 100 µM in each case. In addition, the TGI with SK-MEL-2 melanoma, in the assay on HOP-92 NSCLC, in the assay with HS 578T breast, in the assay with ACHN renal, in the assay on SK-MEL-28 melanoma and with SK-OV-3 ovarian was greater than 100 µM in each case. For the same compound, the TGI in the assay with SF-268 CNS, in the assay with SF-295 CNS, in the assay with PC-3 prostate, in the assay on UACC-257 melanoma, with UACC-62 melanoma and in the assay on KM12 colon was greater than 100 µM in each case.

For the compound `O=C(O)CCC(NC(=O)c1ccc(CNc2nc3ccccc3nc2C(=O)O)cc1)C(=O)O` (centres undefined), the TGI in the assay with SN12C renal, in the assay on HT29 colon, in the assay on OVCAR-5 ovarian, with K-562 leukemia, with TK-10 renal and with 786-0 renal was greater than 100 µM in each case. Also, the TGI in the assay with SK-MEL-2 melanoma, in the assay on HS 578T breast, in the assay on ACHN renal, in the assay with SK-MEL-28 melanoma, in the assay with SK-OV-3 ovarian and with SF-268 CNS was greater than 100 µM throughout. Also, the TGI in the assay on SF-295 CNS, with PC-3 prostate, in the assay on UACC-257 melanoma, in the assay on UACC-62 melanoma and with KM12 colon was greater than 100 µM in each case.

For the compound `O=C(O)c1nccnc1C(=O)O`, the TGI in the assay with SN12C renal, in the assay on HT29 colon, in the assay with OVCAR-5 ovarian, with K-562 leukemia, in the assay with TK-10 renal and in the assay on 786-0 renal was greater than 100 µM throughout. Further, the TGI with SK-MEL-2 melanoma, with HOP-92 NSCLC, with SK-MEL-28 melanoma, in the assay on SK-OV-3 ovarian, in the assay with SF-268 CNS and in the assay on SF-295 CNS was greater than 100 µM in each case. For the same compound, the TGI in the assay on UACC-257 melanoma, in the assay with SF-539 CNS, in the assay with UACC-62 melanoma and with KM12 colon was greater than 100 µM each time.

As to `[O-][n+]1c(-c2ccccc2)c2nc3ccccc3nc2c2ccccc21`, the TGI in the assay with SN12C renal, with HT29 colon, in the assay on OVCAR-5 ovarian, in the assay with K-562 leukemia, in the assay on TK-10 renal and with 786-0 renal was greater than 100 µM each time. Further, the TGI in the assay with SK-MEL-2 melanoma, with HOP-92 NSCLC, in the assay with ACHN renal, in the assay with SK-MEL-28 melanoma, in the assay on SK-OV-3 ovarian and in the assay on SF-268 CNS was greater than 100 µM throughout. In addition, the TGI in the assay on SF-295 CNS, with UACC-257 melanoma, with SF-539 CNS, in the assay on UACC-62 melanoma and with KM12 colon was greater than 100 µM each time.

As for `COC(=O)c1c2c(cc3c1CC1(Cc4cc5c(cc4C1)CCC5)C3)CCC2`, the TGI in the assay with HT29 colon, in the assay with OVCAR-5 ovarian, with K-562 leukemia, in the assay with TK-10 renal, with 786-0 renal and in the assay with SK-MEL-2 melanoma was greater than 100 µM in each case. Further, the TGI with HOP-92 NSCLC, with HS 578T breast, with ACHN renal, in the assay with SK-MEL-28 melanoma, in the assay with SK-OV-3 ovarian and in the assay on SF-268 CNS was greater than 100 µM throughout. Moreover, the TGI in the assay on SF-295 CNS, in the assay with PC-3 prostate, with UACC-257 melanoma and with SF-539 CNS was greater than 100 µM throughout.

On to `N#Cc1c(N)c(C#N)c2c(c1-c1ccc(Cl)cc1)COc1ccccc1-2`, for which the TGI is 31 µM in the assay on SN12C renal; 40.3 µM with HT29 colon; greater than 100 µM in the assay with OVCAR-5 ovarian; 35.3 µM in the assay with K-562 leukemia; 36.1 µM with TK-10 renal; 15.1 µM with 786-0 renal. For the same compound, the TGI with SK-MEL-2 melanoma was 60.1 µM; in the assay on HOP-92 NSCLC, 45.5 µM; in the assay on ACHN renal, 38.1 µM; in the assay with SK-MEL-28 melanoma, 37.4 µM; in the assay with SK-OV-3 ovarian, 36.9 µM; in the assay with SF-268 CNS, greater than 100 µM. The TGI in the assay on PC-3 prostate was 42.6 µM; in the assay on UACC-257 melanoma, greater than 100 µM; in the assay on SF-539 CNS, 49.1 µM; with UACC-62 melanoma it was greater than 100 µM; in the assay with BT-549 breast it was 65.2 µM; in the assay with KM12 colon it was greater than 100 µM.

Take `O=S(=O)(OI(O)CC(F)(F)F)C(F)(F)F`: the TGI with SN12C renal, in the assay on HT29 colon, with OVCAR-5 ovarian, with K-562 leukemia, in the assay with TK-10 renal and with 786-0 renal was greater than 100 µM throughout. In addition, the TGI in the assay with SK-MEL-2 melanoma, in the assay on HOP-92 NSCLC, in the assay with ACHN renal, in the assay on SK-MEL-28 melanoma, in the assay on SK-OV-3 ovarian and with SF-268 CNS was greater than 100 µM each time. Besides, the TGI in the assay on SF-295 CNS, with PC-3 prostate, in the assay with UACC-257 melanoma, in the assay on SF-539 CNS, in the assay with UACC-62 melanoma and in the assay on BT-549 breast was greater than 100 µM in each case. Moreover, the TGI in the assay with KM12 colon is greater than 100 µM.

For `CC(=O)O[C@@H]1O[Si](C(C)(C)C)(C(C)(C)C)[C@H](C)[C@H]1C`, the TGI in the assay on SN12C renal was greater than 100 µM; with HT29 colon, 55.6 µM; in the assay with OVCAR-5 ovarian it was greater than 100 µM; in the assay on K-562 leukemia, greater than 100 µM; in the assay with TK-10 renal, greater than 100 µM; with 786-0 renal it was greater than 100 µM. The TGI in the assay on SK-MEL-2 melanoma, in the assay on ACHN renal, with SK-MEL-28 melanoma, in the assay with SK-OV-3 ovarian, in the assay with SF-295 CNS and in the assay with PC-3 prostate was greater than 100 µM throughout. In addition, the TGI in the assay on UACC-257 melanoma, in the assay with SF-539 CNS, in the assay on UACC-62 melanoma, in the assay on BT-549 breast and with KM12 colon was greater than 100 µM in each case.

Regarding `Cn1c(=O)oc2cc(Br)ccc21`, the TGI with SN12C renal, in the assay on HT29 colon, with OVCAR-5 ovarian, in the assay on K-562 leukemia, in the assay on TK-10 renal and in the assay with 786-0 renal was greater than 100 µM throughout. Besides, the TGI with SK-MEL-2 melanoma, in the assay on HS 578T breast, with ACHN renal, in the assay on SK-MEL-28 melanoma, in the assay with SK-OV-3 ovarian and in the assay with SF-268 CNS was greater than 100 µM in each case. Further, the TGI in the assay on SF-295 CNS, with PC-3 prostate, in the assay on UACC-257 melanoma, in the assay on SF-539 CNS, with UACC-62 melanoma and with KM12 colon was greater than 100 µM each time.
